Measured values taken from patent US7858630B2, “D3 and 5-HT2A receptor modulators” (Hoffmann-La Roche Inc., priority 2008, dated 2010).

Tests used:
[1] = biological target: T1, human serotonin 5-HT2A receptor (Homo sapiens, UniProt P28223); assay: Radioligand binding ([3H]-ketanserin) to membranes of HEK-293 EBNA cells expressing human 5-HT2A receptor; conditions: 1.1 nM [3H]-ketanserin, HEK-293 EBNA membranes, 1 h at RT
T1 construct: expressed in transfected cells; host or cells: HEK-293 EBNA cells, transient transfection; membrane preparation
How it was run: (§1)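 Membranes from HEK-293 EBNA cells transiently transfected with the receptor were incubated 1 h at RT with ten test concentrations (10 μM–0.1 nM) and ~0.7 nM [3H]-spiperone (D2), 0.5 nM [3H]-spiperone (D3) or 1.1 nM [3H]-ketanserin (5-HT2A). Nonspecific binding was set with 10 μM spiperone, bound radioactivity was read by filtration and scintillation, and Ki was taken from IC50 via Cheng-Prusoff.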

[2] = biological target: T2, human dopamine D3 receptor (Homo sapiens, UniProt P35462); assay: Radioligand binding ([3H]-spiperone) to membranes of HEK-293 EBNA cells expressing human D3 receptor; conditions: human D3, 0.5 nM [3H]-spiperone, HEK-293 EBNA membranes, 1 h at RT
T2 construct: expressed in transfected cells; host or cells: HEK-293 EBNA cells, transient transfection; membrane preparation
How it was run: as §1

[3] = biological target: T3, human dopamine D2 receptor (Homo sapiens, UniProt P14416); assay: Radioligand binding ([3H]-spiperone) to membranes of HEK-293 EBNA cells expressing human D2 receptor; conditions: human D2, 0.7 nM [3H]-spiperone, HEK-293 EBNA membranes, 1 h at RT
T3 construct: expressed in transfected cells; host or cells: HEK-293 EBNA cells, transient transfection; membrane preparation
How it was run: as §1

T3 sequence (P14416 whole entry): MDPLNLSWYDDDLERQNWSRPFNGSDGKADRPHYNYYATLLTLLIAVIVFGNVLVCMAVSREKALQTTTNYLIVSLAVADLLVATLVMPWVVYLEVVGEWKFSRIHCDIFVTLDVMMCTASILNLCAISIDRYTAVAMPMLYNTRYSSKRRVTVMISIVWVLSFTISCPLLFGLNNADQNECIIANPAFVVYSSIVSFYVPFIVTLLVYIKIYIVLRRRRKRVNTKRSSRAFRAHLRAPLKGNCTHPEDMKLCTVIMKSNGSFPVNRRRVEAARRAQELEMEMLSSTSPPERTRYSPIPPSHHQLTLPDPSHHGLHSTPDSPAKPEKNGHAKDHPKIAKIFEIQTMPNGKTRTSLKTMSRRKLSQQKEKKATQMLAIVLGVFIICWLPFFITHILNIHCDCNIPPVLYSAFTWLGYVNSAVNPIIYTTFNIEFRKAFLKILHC
T2 sequence (P35462 whole entry): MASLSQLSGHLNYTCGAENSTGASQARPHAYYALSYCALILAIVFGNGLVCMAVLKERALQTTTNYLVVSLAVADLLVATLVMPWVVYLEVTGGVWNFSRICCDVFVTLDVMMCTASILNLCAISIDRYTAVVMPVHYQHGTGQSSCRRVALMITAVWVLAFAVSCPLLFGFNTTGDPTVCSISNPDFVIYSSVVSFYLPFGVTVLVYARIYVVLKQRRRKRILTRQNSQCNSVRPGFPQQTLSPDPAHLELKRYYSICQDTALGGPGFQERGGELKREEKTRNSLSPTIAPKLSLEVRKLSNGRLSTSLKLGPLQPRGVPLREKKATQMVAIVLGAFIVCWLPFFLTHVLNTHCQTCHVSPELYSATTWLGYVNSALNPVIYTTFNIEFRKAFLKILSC
T1 sequence (P28223 whole entry): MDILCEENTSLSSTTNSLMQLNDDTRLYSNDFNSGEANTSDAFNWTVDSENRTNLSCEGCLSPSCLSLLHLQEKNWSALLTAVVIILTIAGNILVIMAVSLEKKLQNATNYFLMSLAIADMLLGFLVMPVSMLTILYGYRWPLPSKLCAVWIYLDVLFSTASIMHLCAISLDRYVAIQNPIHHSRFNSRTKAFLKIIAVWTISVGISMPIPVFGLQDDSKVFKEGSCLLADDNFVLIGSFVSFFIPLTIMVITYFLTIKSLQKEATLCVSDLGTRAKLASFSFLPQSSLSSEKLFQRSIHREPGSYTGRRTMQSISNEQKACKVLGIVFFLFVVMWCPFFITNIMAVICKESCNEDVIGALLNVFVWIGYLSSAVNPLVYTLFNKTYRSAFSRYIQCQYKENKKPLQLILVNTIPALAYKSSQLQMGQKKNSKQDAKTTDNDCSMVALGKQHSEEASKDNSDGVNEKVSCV

## O=C(CC1CCCCO1)N[C@H]1CC[C@H](CCN2CCN(c3noc4cc(Cl)ccc34)CC2)CC1 (stereo partly drawn) [Example 35, N-trans-(4-{2-[4-(6-Chloro-benzo[d]isoxazol-3-yl)-piperazin-1-yl]-ethyl}-cyclohexyl)-2-(tetrahydro-pyran-2-yl)-acetamide]
[1]
  Ki: 4.8 nM
[2]
  Ki: 17.2 nM
[3]
  Ki: 899 nM

## O=C(C[C@H]1CC[C@H](O)CC1)N[C@H]1CC[C@H](CCN2CCN(c3noc4cc(Cl)ccc34)CC2)CC1 [Example 43, N-trans-(4-{2-[4-(6-Chloro-benzo[d]isoxazol-3-yl)-piperazin-1-yl]-ethyl}-cyclohexyl)-2-trans-(4-hydroxy-cyclohexyl)-acetamide]
[1]
  Ki: 3.22 nM
[2]
  Ki: 12.5 nM
[3]
  Ki: 2920 nM

## CC(C)OC1CCC(CC(=O)N[C@H]2CC[C@H](CCN3CCN(c4noc5cc(Cl)ccc45)CC3)CC2)CC1 (mixture of isomers) [Example 51, N-trans-(4-{2-[4-(6-Chloro-benzo[d]isoxazol-3-yl)-piperazin-1-yl]-ethyl}-cyclohexyl)-2-(4-isopropoxy-cyclohexyl)-acetamide]
[1]
  Ki: 3.37 nM
[2]
  Ki: 10.4 nM
[3]
  Ki: 3020 nM

## COC[C@H]1C[C@H](CC(=O)N[C@H]2CC[C@H](CCN3CCN(c4noc5ccc(F)cc45)CC3)CC2)C1 [Example 27, N-trans-(4-{2-[4-(5-Fluoro-benzo[d]isoxazol-3-yl)-piperazin-1-yl]-ethyl}-cyclohexyl)-2-trans-(3-methoxymethyl-cyclobutyl)-acetamide]
[1]
  Ki: 26.2 nM
[2]
  Ki: 10 nM
[3]
  Ki: 718 nM

## Cc1cc2c(N3CCN(CC[C@H]4CC[C@H](NC(=O)CC5OCCCO5)CC4)CC3)noc2cc1F [Example 111, 2-[1,3]Dioxan-2-yl-N-trans-(4-{2-[4-(6-fluoro-5-methyl-benzo[d]isoxazol-3-yl)-piperazin-1-yl]-ethyl}-cyclohexyl)-acetamide]
[1]
  Ki: 7.66 nM
[2]
  Ki: 10.6 nM
[3]
  Ki: 4040 nM

## CO[C@H]1CC[C@H](CC(=O)N[C@H]2CC[C@H](CCN3CCN(c4noc5cc(F)c(F)cc45)CC3)CC2)CC1 [Example 58, N-trans-(4-{2-[4-(5,6-Difluoro-benzo[d]isoxazol-3-yl)-piperazin-1-yl]-ethyl}-cyclohexyl)-2-trans-(4-methoxy-cyclohexyl)-acetamide]
[1]
  Ki: 7.59 nM
[2]
  Ki: 14.4 nM
[3]
  Ki: 11300 nM

## COCC(=O)N[C@H]1CC[C@H](CCN2CCN(c3noc4ccc(F)cc34)CC2)CC1 [Example 9, N-trans-(4-{2-[4-(5-Fluoro-benzo[d]isoxazol-3-yl)-piperazin-1-yl]-ethyl}-cyclohexyl)-2-methoxy-acetamide]
[1]
  Ki: 23.3 nM
[2]
  Ki: 7.49 nM
[3]
  Ki: 1860 nM

## O=C(CC1OCCCO1)N[C@H]1CC[C@H](CCN2CCN(c3noc4ccc(F)cc34)CC2)CC1 [Example 24, 2-[1,3]Dioxan-2-yl-N-trans-(4-{2-[4-(5-fluoro-benzo[d]isoxazol-3-yl)-piperazin-1-yl]-ethyl}-cyclohexyl)-acetamide]
[1]
  Ki: 16.8 nM
[2]
  Ki: 4.55 nM
[3]
  Ki: 1070 nM

## COC1(C)CCC(CC(=O)N[C@H]2CC[C@H](CCN3CCN(c4noc5cc(Cl)ccc45)CC3)CC2)CC1 (stereo partly drawn) [Example 39, N-trans-(4-{2-[4-(6-Chloro-benzo[d]isoxazol-3-yl)-piperazin-1-yl]-ethyl}-cyclohexyl)-2-(4-methoxy-4-methyl-cyclohexyl)-acetamide]
[1]
  Ki: 4.14 nM
[2]
  Ki: 23.4 nM
[3]
  Ki: 3800 nM

## O=C(C[C@@H]1CCCCO1)N[C@H]1CC[C@H](CCN2CCN(c3noc4cc(Cl)ccc34)CC2)CC1 [Example 50, N-trans-(4-{2-[4-(6-Chloro-benzo[d]isoxazol-3-yl)-piperazin-1-yl]-ethyl}-cyclohexyl)-2-(S)-tetrahydro-pyran-2-yl-acetamide]
[1]
  Ki: 4.78 nM
[2]
  Ki: 23.7 nM
[3]
  Ki: 1160 nM

## CC(C)(O)CC(=O)N[C@H]1CC[C@H](CCN2CCN(c3noc4ccc(F)cc34)CC2)CC1 [Example 11, N-trans-(4-{2-[4-(5-Fluoro-benzo[d]isoxazol-3-yl)-piperazin-1-yl]-ethyl}-cyclohexyl)-3-hydroxy-3-methyl-butyramide]
[1]
  Ki: 24 nM
[2]
  Ki: 4.82 nM
[3]
  Ki: 482 nM

## CC(=O)N[C@H]1CC[C@H](CCN2CCN(c3noc4cc(F)c(Cl)cc34)CC2)CC1 [Example 73, N-trans-(4-{2-[4-(5-Chloro-6-fluoro-benzo[d]isoxazol-3-yl)-piperazin-1-yl]-ethyl}-cyclohexyl)-acetamide]
[1]
  Ki: 16.8 nM
[2]
  Ki: 9.74 nM
[3]
  Ki: 559 nM

## O=C(CC1CCOCC1)N[C@H]1CC[C@H](CCN2CCN(c3noc4cc(F)c(F)cc34)CC2)CC1 [Example 63, N-trans-(4-{2-[4-(5,6-Difluoro-benzo[d]isoxazol-3-yl)-piperazin-1-yl]-ethyl}-cyclohexyl)-2-(tetrahydro-pyran-4-yl)-acetamide]
[1]
  Ki: 6.88 nM
[2]
  Ki: 7.13 nM
[3]
  Ki: 9710 nM

## CCC(=O)N[C@H]1CC[C@H](CCN2CCN(c3noc4cc(Cl)c(F)cc34)CC2)CC1 [Example 70, N-trans-(4-{2-{4-(6-Chloro-5-fluoro-benzo[d]isoxazol-3-yl)-piperazin-1-yl]-ethyl}-cyclohexyl)-propionamide]
[1]
  Ki: 68.1 nM
[2]
  Ki: 7.15 nM
[3]
  Ki: 852 nM

## CO[C@H]1CC[C@H](CC(=O)N[C@H]2CC[C@H](CCN3CCN(c4noc5cc(Cl)ccc45)CC3)CC2)C1 (relative stereo) [Example 36, N-trans-(4-{2-[4-(6-Chloro-benzo[d]isoxazol-3-yl)-piperazin-1-yl]-ethyl}-cyclohexyl)-2-trans-(3-methoxy-cyclopentyl)-acetamide]
[1]
  Ki: 2.74 nM
[2]
  Ki: 10.1 nM
[3]
  Ki: 683 nM

## COCCC(=O)N[C@H]1CC[C@H](CCN2CCN(c3noc4cc(F)c(F)cc34)CC2)CC1 [Example 57, N-trans-(4-{2-[4-(5,6-Difluoro-benzo[d]isoxazol-3-yl)-piperazin-1-yl]-ethyl}-cyclohexyl)-3-methoxy-propionamide]
[1]
  Ki: 13.1 nM
[2]
  Ki: 6.18 nM
[3]
  Ki: 396 nM

## O=C(CC1COCCO1)N[C@H]1CC[C@H](CCN2CCN(c3noc4cc(F)c(Cl)cc34)CC2)CC1 (stereo partly drawn) [Example 76, N-trans-(4-{2-[4-(5-Chloro-6-fluoro-benzo[d]isoxazol-3-yl)-piperazin-1-yl]-ethyl}-cyclohexyl)-2-[1,4]dioxan-2-yl-acetamide]
[1]
  Ki: 20.4 nM
[2]
  Ki: 19.9 nM
[3]
  Ki: 632 nM

## Cc1cc2c(N3CCN(CC[C@H]4CC[C@H](NC(=O)CC5CCCCO5)CC4)CC3)noc2cc1F (stereo partly drawn) [Example 117, N-trans-(4-{2-[4-(6-Fluoro-5-methyl-benzo[d]isoxazol-3-yl)-piperazin-1-yl]-ethyl}-cyclohexyl)-2-(tetrahydro-pyran-2-yl)-acetamide]
[1]
  Ki: 8 nM
[2]
  Ki: 33 nM
[3]
  Ki: > 2000 nM

## O=C(CC1CCOCC1)N[C@H]1CC[C@H](CCN2CCN(c3noc4cc(F)ccc34)CC2)CC1 [Example 112, N-trans-(4-{2-[4-(6-Fluoro-benzo[d]isoxazol-3-yl)-piperazin-1-yl]-ethyl}-cyclohexyl)-2-(tetrahydro-pyran-4-yl)-acetamide]
[1]
  Ki: 3.51 nM
[2]
  Ki: 4.33 nM
[3]
  Ki: 119 nM

## COC1CCC(C(=O)N[C@H]2CC[C@H](CCN3CCN(c4noc5ccc(F)cc45)CC3)CC2)CC1 (stereo partly drawn) [Example 13, 4-Methoxy-cyclohexanecarboxylic acid N-trans-(4-{2-[4-(5-fluoro-benzo[d]isoxazol-3-yl)-piperazin-1-yl]-ethyl}-cyclohexyl)-amide]
[1]
  Ki: 35.1 nM
[2]
  Ki: 41.4 nM
[3]
  Ki: 3440 nM

## CCOCC(=O)N[C@H]1CC[C@H](CCN2CCN(c3noc4ccc(F)cc34)CC2)CC1 [Example 12, 2-Ethoxy-N-trans-(4-{2-[4-(5-fluoro-benzo[d]isoxazol-3-yl)-piperazin-1-yl]-ethyl}-cyclohexyl)-acetamide]
[1]
  Ki: 23.5 nM
[2]
  Ki: 15.6 nM
[3]
  Ki: 1390 nM

## O=C(CO)N[C@H]1CC[C@H](CCN2CCN(c3noc4cc(Cl)ccc34)CC2)CC1 [Example 42, N-trans-(4-{2-[4-(6-Chloro-benzo[d]isoxazol-3-yl)-piperazin-1-yl]-ethyl}-cyclohexyl)-2-hydroxy-acetamide]
[1]
  Ki: 6.99 nM
[2]
  Ki: 11 nM
[3]
  Ki: 809 nM

## O=C(N[C@H]1CC[C@H](CCN2CCN(c3noc4cc(Cl)ccc34)CC2)CC1)C1CCOC1 (stereo partly drawn) [Example 34, Tetrahydro-furan-3-carboxylic acid N-trans-(4-{2-[4-(6-chloro-benzo[d]isoxazol-3-yl)-piperazin-1-yl]-ethyl}-cyclohexyl)-amide]
[1]
  Ki: 10.4 nM
[2]
  Ki: 18.8 nM
[3]
  Ki: 193 nM

## CC(=O)N[C@H]1CC[C@H](CCN2CCN(c3noc4cc(F)c(C)cc34)CC2)CC1 [Example 106, N-trans-(4-{2-[4-(6-Fluoro-5-methyl-benzo[d]isoxazol-3-yl)-piperazin-1-yl]-ethyl}-cyclohexyl)-acetamide]
[1]
  Ki: 31.9 nM
[2]
  Ki: 9.04 nM
[3]
  Ki: 2380 nM

## CC(=O)N[C@H]1CC[C@H](CCN2CCN(c3noc4ccccc34)CC2)CC1 [Example 2, N-trans-{4-[2-(4-benzo[d]isoxazol-3-yl-piperazin-1-yl)-ethyl]-cyclohexyl}-acetamide]
[1]
  Ki: 4.96 nM
[2]
  Ki: 8.88 nM
[3]
  Ki: 272 nM

## CC(=O)N[C@H]1CC[C@H](CCN2CCN(c3noc4cc(F)c(F)cc34)CC2)CC1 [Example 56, N-trans-(4-{2-[4-(5,6-Difluoro-benzo[d]isoxazol-3-yl)-piperazin-1-yl]-ethyl}-cyclohexyl)-acetamide]
[1]
  Ki: 12 nM
[2]
  Ki: 5.83 nM
[3]
  Ki: 380 nM
